The source of these data is ChEMBL document CHEMBL5620362 (Eur J Med Chem, 2023).

The target of test [1] is T1, Nuclear receptor ROR-gamma (Homo sapiens) (UniProt P51449).
T1 sequence (whole entry): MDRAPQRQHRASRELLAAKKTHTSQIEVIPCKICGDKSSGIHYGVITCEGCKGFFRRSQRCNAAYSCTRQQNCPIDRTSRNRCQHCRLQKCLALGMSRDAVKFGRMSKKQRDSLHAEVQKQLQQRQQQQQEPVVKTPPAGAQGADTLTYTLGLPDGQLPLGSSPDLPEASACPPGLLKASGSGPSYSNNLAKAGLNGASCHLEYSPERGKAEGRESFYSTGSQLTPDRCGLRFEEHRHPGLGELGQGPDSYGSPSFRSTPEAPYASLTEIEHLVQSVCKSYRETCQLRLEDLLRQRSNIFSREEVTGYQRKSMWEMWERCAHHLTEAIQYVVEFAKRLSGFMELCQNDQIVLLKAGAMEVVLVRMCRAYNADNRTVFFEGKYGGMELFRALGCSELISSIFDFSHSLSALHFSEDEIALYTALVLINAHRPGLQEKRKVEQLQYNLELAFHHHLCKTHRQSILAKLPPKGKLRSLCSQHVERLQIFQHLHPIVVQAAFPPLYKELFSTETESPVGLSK
Kind of test: Binding affinity to ROR-gamma LBD (265 to 507 residues)(unknown origin) assessed as increase in thermal stability by measuring change in melting temperature at 100 uM incubated for 2 hrs followed by heating at 20 to 90 degreeC by NanoDSF assay (reference value: 46.0 degreeC). The note with it: filed as antagonist. On the technique in general: DSF heats the sample and reads unfolding from a dye or from intrinsic fluorescence.

Test [2] deals with T1, Nuclear receptor ROR-gamma (Homo sapiens). Briefly: Binding affinity to ROR-gamma LBD (265 to 507 residues)(unknown origin) assessed as increase in thermal stability by measuring melting temperature at 100 uM incubated for 2 hrs followed by heating at 20 to 90 degreeC by NanoDSF assay (reference value: 46.0 degreeC). The note with it: filed as antagonist.
Test [3] has the same target. Kind of test: Binding affinity to ROR-gamma LBD (unknown origin) assessed as protein stabilization by measuring reduction in hydrolysis rate incubated for 10 mins by SDS-PAGE analysis. The following applies: filed as antagonist, dose <= 100.0 µM.
Test [4] deals with T2, Nuclear receptor ROR-gamma (Homo sapiens, UniProt P51449).
T2 sequence (P51449 whole entry): T1 sequence (whole entry)
Kind of test: Antagonist activity at ROR-gamma LBD (unknown origin) using biotinylated SRC1-2 as substrate preincubated for 60 mins followed by substrate addition measured after 30 mins by HTRF assay. In general terms: In TR-FRET formats the signal depends on donor and acceptor labels being close together.

Test [5] concerns the target T2, Nuclear receptor ROR-gamma. Briefly: Binding affinity to ROR-gamma LBD (unknown origin) assessed as dissociation constant by ITC analysis. (In ITC the heat of successive injections is recorded.)
In test [6] the target is T2, Nuclear receptor ROR-gamma. Kind of test: Binding affinity to CM5 chip-immobilized recombinant ROR-gamma LBD (unknown origin) assessed as dissociation constant by SPR analysis.
Test [7] concerns HPAF-II. Kind of test: Antitumor activity against human HPAF-II cells measured after 72 hrs. Format: functional, cell-based.
For test [8], the system named is HPAF-II. Kind of test: Downregulation of retinol metabolism-related gene expression in human HPAF-II cells at 20 uM incubated for 24 hrs by KEGG analysis. Format: functional, cell-based.
For test [9], the system named is HPAF-II. Kind of test: Downregulation of drug metabolism-related gene expression in human HPAF-II cells at 20 uM incubated for 24 hrs by KEGG analysis. It counts as functional, cell-based.
Test [10] relates to HPAF-II. Kind of test: Downregulation of chemical carcinogenesis-related gene expression in human HPAF-II cells at 20 uM incubated for 24 hrs by KEGG analysis. Format: functional, cell-based.
In test [11] the test system is HPAF-II. Briefly: Downregulation of cancer-related gene expression in human HPAF-II cells at 20 uM incubated for 24 hrs by KEGG analysis. Format: functional, cell-based.
Test [12] concerns HPAF-II. Briefly: Downregulation of retinol metabolism-related gene expression in human HPAF-II cells at 20 uM incubated for 24 hrs by GO analysis. It counts as functional, cell-based.
The test system of test [13] is HPAF-II. Briefly: Downregulation of lipid metabolism-related gene expression in human HPAF-II cells at 20 uM incubated for 24 hrs by GO analysis. Format: functional, cell-based.
In test [14] the test system is HPAF-II. Briefly: Downregulation of cancer-related gene expression in human HPAF-II cells at 20 uM incubated for 24 hrs by GO analysis. Format: functional, cell-based.
The subject of test [15] is HPAF-II. Kind of test: Inhibition of MAPK signalling pathway in human HPAF-II cells at 20 uM incubated for 24 hrs by KEGG analysis. Format: functional, cell-based.
In test [16] the test system is HPAF-II. Kind of test: Inhibition of RAS signalling pathway in human HPAF-II cells at 20 uM incubated for 24 hrs by KEGG analysis. Format: functional, cell-based.
For test [17], the system named is HPAF-II. Briefly: Effect on mTORC1 signalling pathway in human HPAF-II cells at 20 uM incubated for 24 hrs by KEGG analysis. It counts as functional, cell-based.
The subject of test [18] is HPAF-II. Kind of test: Downregulation of phosphorylated MEK expression in human HPAF-II cells at 20 uM incubated for 48 hrs by Western blot analysis. It counts as functional, cell-based.
Test [19] concerns HPAF-II. Briefly: Downregulation of phosphorylated ERK expression in human HPAF-II cells at 20 uM incubated for 48 hrs by Western blot analysis. Format: functional, cell-based.
The subject of test [20] is HPAF-II. Kind of test: Downregulation of phosphorylated AKT expression in human HPAF-II cells at 20 uM incubated for 48 hrs by Western blot analysis. It counts as functional, cell-based.

Activity calls are given as the source filed them. The rule behind the calls is not given here.

In the case of `C=C(C)[C@@H]1CC[C@]2(C(=O)O)CC[C@]3(C)[C@H](CC[C@@H]4[C@@]5(C)CC[C@H](O)C(C)(C)[C@@H]5CC[C@]43C)[C@@H]12` [BETULINIC ACID], the ΔTm in [1] turned out to be 14.1 °C. Besides, in test [2], the midpoint of thermal melting (Tm) worked out at 60.2 °C. In test [3], the Activity result was “Dose-Dependent Effect”. The IC50 in [4] was 2.2 µM; in the test on HPAF-II [7] it was 12.5 µM. Also, the dissociation constant (Kd) in [5] worked out at 3.39 µM; in test [6], 2.7 µM. For the same molecule, the outcome in the test with HPAF-II [8], in the test with HPAF-II [9], with HPAF-II [10], in the test with HPAF-II [11], with HPAF-II [12] and in the test with HPAF-II [13] was Active. Moreover, the outcome with HPAF-II [14], in the test on HPAF-II [17], in the test with HPAF-II [18], in the test with HPAF-II [19] and with HPAF-II [20] was Active. The inhibition result in the test with HPAF-II [15] and in the test with HPAF-II [16] was “Active” each time.

One may read the ΔTm as the shift of the melting midpoint relative to a reference. A word on the Tm: it is the temperature at the midpoint of the melting transition. The term IC50 denotes the concentration that inhibits the measured activity by half. Read a high IC50 as a need for much substance. Usually Kd stands for the free concentration of one partner at which half of the binding sites on the other are occupied at equilibrium, for simple one-to-one binding.
